Assay results: BindingDB's records for PubMed 27409354 (n/a, 2016)

Experiment: Binding affinity to CypD (unknown origin)

Ki: 2000 nM
SMILES: O=C(Nc1ccc2nc(-c3ccco3)c(-c3ccco3)nc2c1)N1CCCC1
